Source: PMC9027532, “Preclinical Pharmacokinetic Studies of a Novel Diuretic Inhibiting Urea Transporters” (Molecules, 2022)
“And” between values parts separate entries of the source, which are not always exact repeats. Equal values may be shown once.

Experiments:
[1] = Excretion experiment in bile duct cannulated rats (bile); format: in vivo, SD rats; conditions: single oral dose 100 mg/kg
Protocol: The cumulative excretion ratios of unchanged 25a in the urine, feces, and bile of rats after a single oral dose at 100 mg/kg were 0.14% ± 0.05%, 3.16% ± 0.96%, and 0.018% ± 0.006%, respectively (Figure 6 and Tables S5–S7). […] Further phenotyping and metabolite identification studies should be conducted to elucidate the major elimination forms of 25a in the future.
Four SD rats were adapted in metabolic cages for 3 days in advance and then administrated with 25a at 100 mg/kg orally. Feces and urine were collected and weighed at 0–6 h, 6–12 h, […], 24–36 h, 36–48 h, 48–60 h, and 60–72 h after administration. Parallelly, four SD rats received bile duct cannulation and were given a single dose of 25a at 100 mg/kg orally. Bile was collected and weighed at 0–2 h, 0–4 h, 0–6 h, 0–8 h, 0–10 h, 0–12 h, 0–24 h, 0–36 h, and 0–48 h after administration. All samples were stored at −80 °C until analysis.

[2] = Plasma protein binding by equilibrium dialysis, human plasma; format: in vitro ADME; conditions: human, plasma
Protocol: (§1) The plasma protein binding (PPB) and blood plasma ratio (BPR) are crucial parameters influencing the drug distribution and elimination in plasma. The PPB profile of 25a was evaluated by equilibrium dialysis, a classic method to assess the interactions of small molecules with proteins. The PPB of 25a was tested at 50, 500, and 2500 ng/mL (Table 7). […] When considering the allometric scaling of PK parameters, the species difference of protein binding between humans and rats should be considered.
(§2) The plasma protein binding (PPB) ratio of 25a was assessed via equilibrium dialysis in SD rats and human plasma. Four hundred microliters of plasma containing 50, 500, or 2500 ng/mL 25a were loaded into the dialysis bags (plasma side), and the bags were placed into tubes containing 4 mL of the dialysis buffer (buffer side). The tubes were then rotated at approximately 100 rpm in a humidified incubator with 5% CO2 at 37 ± 1 °C for 5 h.
(§3) After the 5 h dialysis, aliquots of 50 μL samples were taken from both the buffer and the plasma sides. An equal volume of the opposite blank matrix (buffer or plasma) was added to each sample to reach a final volume of 100 μL with a volume ratio of plasma to dialysis buffer at 1:1 (v/v). All samples were further processed by adding 600 μL of stop solution (containing 10 ng/mL IS) to precipitate protein for LC–MS/MS analysis. The PPB ratio (%) was calculated by PPB% = 100% × (1 − Conc.buffer side/Conc.plasma side).

[3] = system: plasma protein; assay: as above; format: in vitro ADME; conditions: human plasma, 50, 500, 2500 ng/mL
Protocol: as §1, §2, §3

[4] = Plasma protein binding by equilibrium dialysis, rat plasma; format: in vitro ADME, SD rats
Protocol: as §1, §2, §3

[5] = Blood plasma ratio, human blood; format: in vitro ADME; conditions: for Blood Plasma Ratio: human
Protocol: The BPR of 25a in rats and humans was assessed. […] In addition, a significant species difference between rats and humans was observed (p < 0.05, Student’s t-test, n = 3).
The blood plasma ratio of 25a was investigated as previously reported. Briefly, fresh whole blood was collected into collection tubes containing K2–EDTA as an anticoagulant from SD rats and healthy volunteers. Blood spiked with 50, 500, and 2500 ng/mL 25a was incubated in the incubator with 5% CO2 at 37 ± 1 °C for 1 h. Some of the incubated samples were processed as blood samples; the remaining incubated samples were centrifuged to generate plasma samples. The concentration of 25a in samples was determined using the validated LC–MS/MS method.

[6] = system: UT-B; design: method as in PMID 34601246; conditions: rat; read-out: inhibitory effect on UT-B; cited from earlier work
[7] = in vivo; conditions: male, Sprague-Dawley, rat, po

CC(=O)Nc1ccc(NC(=O)c2ccc(C(C)=O)o2)cc1 [Compound 25a, N-(4-acetamidophenyl)-5-acetylfuran-2-carboxamide]
Accumulated Amount in bile ([1]; 0-2 h): 0.531 ± 0.233 µg | Concentration in bile ([1]; 0-2 h): 220.5 ± 44.4 ng/mL | The cumulative excretion ratio in bile ([1]; 0-2 h): […] | Accumulated Amount in bile ([1]; 0-4 h): 1.138 ± 0.434 µg | Concentration in bile ([1]; 0-4 h): 192.3 ± 52.3 ng/mL | The cumulative excretion ratio in bile ([1]; 0-4 h): […] | Accumulated Amount in bile ([1]; 0-6 h): 1.451 ± 0.481 µg | Concentration in bile ([1]; 0-6 h): 161.3 ± 55.4 ng/mL | The cumulative excretion ratio in bile ([1]; 0-6 h): […] | Accumulated Amount in bile ([1]; 0-8 h): 1.783 ± 0.489 µg | Concentration in bile ([1]; 0-8 h): 169.5 ± 57.2 ng/mL | The cumulative excretion ratio in bile ([1]; 0-8 h): […] | Accumulated Amount in bile ([1]; 0-10 h): 2.215 ± 0.603 µg | Concentration in bile ([1]; 0-10 h): 156.8 ± 23.8 ng/mL | The cumulative excretion ratio in bile ([1]; 0-10 h): […] | Accumulated Amount in bile ([1]; 0-12 h): 2.888 ± 0.929 µg | Concentration in bile ([1]; 0-12 h): 147.3 ± 27.7 ng/mL | The cumulative excretion ratio in bile ([1]; 0-12 h): […] | Accumulated Amount in bile ([1]; 0-24 h): 3.664 ± 1.010 µg | Concentration in bile ([1]; 0-24 h): 83.5 ± 19.9 ng/mL | The cumulative excretion ratio in bile ([1]; 0-24 h): […] | Accumulated Amount in bile ([1]; 0-36 h): 4.113 ± 1.058 µg | Concentration in bile ([1]; 0-36 h): 40.7 ± 21.1 ng/mL | The cumulative excretion ratio in bile ([1]; 0-36 h): […] | Accumulated Amount in bile ([1]; 0-48 h): 4.300 ± 1.184 µg | Concentration in bile ([1]; 0-48 h): 17.9 ± 17.1 ng/mL | The cumulative excretion ratio in bile ([1]; 0-48 h): […] | cumulative excretion ratio of unchanged 25a in bile ([1]; 100 mg/kg): 0.018% and 0.018% ± 0.006% | fraction unbound at 5 h, 50 ng/mL ([2]; human plasma, 50 ng/mL): 0.559 | fraction unbound at 5 h, 500 ng/mL ([2]; human plasma, 500 ng/mL): 0.612 | fraction unbound at 5 h, 2500 ng/mL ([2]; human plasma, 2500 ng/mL): 0.595 | fraction unbound at 5 h ([2]; human plasma, 50, 500, 2500 ng/mL, read-out: mean plasma protein binding (PPB) (converted)): ~0.6 | mean plasma protein binding (PPB) [3]: 38.8%–44.1% | fraction unbound at 5 h, 50 ng/mL ([4]; SD, rat plasma, 50 ng/mL): 0.368 | fraction unbound at 5 h, 500 ng/mL ([4]; SD, rat plasma, 500 ng/mL): 0.386 | fraction unbound at 5 h, 2500 ng/mL ([4]; SD, rat plasma, 2500 ng/mL): 0.355 | fraction unbound at 5 h ([4]; Sprague-Dawley, rat plasma, 50, 500, 2500 ng/mL, read-out: mean plasma protein binding (PPB) (converted)): ~0.4 | Blood Plasma Ratio ([5]; 50 ng/mL): […] | Blood Plasma Ratio ([5]; 500 ng/mL): […] | Blood Plasma Ratio ([5]; 2500 ng/mL): […] | mean blood plasma ratio (BPR) ([5]; humans, 50, 500, 2500 ng/mL): […] | IC50 [6]: […] | MRT [7]: ~5.4 h | MRT ([7]; 50 mg/kg): 5.4 ± 0.8 h | AUC(0-t) ([7]; 100 mg/kg): 6920 ± 377 ng·h/mL
